Results on ten compounds are retold here after US11447466B2, “Substituted indole compounds useful as inhibitors of TLR7/8/9” (BRISTOL-MYERS SQUIBB COMPANY, priority 2017, dated 2022).

What all share (format): cell-based
For assay [1], the target named is T1, human TLR7 (Homo sapiens, UniProt Q9NYK1).
T1 construct: host or cells: HEK-Blue cells
T1 sequence (Q9NYK1 27-1049): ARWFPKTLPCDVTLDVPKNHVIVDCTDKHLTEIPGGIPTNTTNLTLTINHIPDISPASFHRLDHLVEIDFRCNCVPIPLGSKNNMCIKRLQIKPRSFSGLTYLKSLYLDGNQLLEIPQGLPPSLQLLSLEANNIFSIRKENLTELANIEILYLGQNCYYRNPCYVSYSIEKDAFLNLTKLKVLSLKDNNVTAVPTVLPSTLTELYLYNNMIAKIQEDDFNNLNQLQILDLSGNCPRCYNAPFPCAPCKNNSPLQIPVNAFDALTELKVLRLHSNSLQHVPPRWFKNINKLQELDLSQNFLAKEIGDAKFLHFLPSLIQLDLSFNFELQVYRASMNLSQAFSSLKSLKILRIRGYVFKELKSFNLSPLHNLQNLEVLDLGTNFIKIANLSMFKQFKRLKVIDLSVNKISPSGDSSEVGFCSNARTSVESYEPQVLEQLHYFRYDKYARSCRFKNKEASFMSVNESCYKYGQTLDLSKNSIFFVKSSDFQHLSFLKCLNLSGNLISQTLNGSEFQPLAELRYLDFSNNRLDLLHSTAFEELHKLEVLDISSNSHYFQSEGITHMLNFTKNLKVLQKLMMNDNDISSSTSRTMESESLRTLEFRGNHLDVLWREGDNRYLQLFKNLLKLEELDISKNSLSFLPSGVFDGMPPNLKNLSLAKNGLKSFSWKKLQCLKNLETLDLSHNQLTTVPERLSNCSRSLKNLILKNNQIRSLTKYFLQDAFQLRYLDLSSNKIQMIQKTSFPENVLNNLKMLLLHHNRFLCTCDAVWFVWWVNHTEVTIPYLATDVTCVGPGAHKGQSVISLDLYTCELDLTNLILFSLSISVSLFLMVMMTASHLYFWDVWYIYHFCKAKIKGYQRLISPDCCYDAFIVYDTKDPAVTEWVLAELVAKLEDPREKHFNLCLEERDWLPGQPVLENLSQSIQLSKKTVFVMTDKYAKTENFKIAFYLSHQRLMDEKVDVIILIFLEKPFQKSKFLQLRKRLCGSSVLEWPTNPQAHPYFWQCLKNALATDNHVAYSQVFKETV
Put plainly: TLR7 inhibition reporter assay (HEK-Blue SEAP reporter, gardiquimod stimulation). The following applies: HEK-Blue cells overexpressing human TLR7, SEAP reporter, gardiquimod 7.5 μM, 22 hour incubation. In short, it runs like this:
(§1)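 Agonists used: gardiquimod 7.5 μM (TLR7), R848 15.9 μM (TLR8), ODN2006 5 nM (TLR9), added after 30 min room-temperature compound pre-treatment (0.05 nM–50 μM) of receptor-overexpressing HEK-Blue cells. SEAP reporter (NF-κB/AP-1 driven) read after 22 h at 37 °C; inhibition scaled between agonist+DMSO and reference-inhibitor wells.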

For assay [2], the target named is T2, human TLR8 (Homo sapiens, UniProt Q9NR97).
T2 construct: host or cells: HEK-Blue cells
T2 sequence (Q9NR97 27-1041): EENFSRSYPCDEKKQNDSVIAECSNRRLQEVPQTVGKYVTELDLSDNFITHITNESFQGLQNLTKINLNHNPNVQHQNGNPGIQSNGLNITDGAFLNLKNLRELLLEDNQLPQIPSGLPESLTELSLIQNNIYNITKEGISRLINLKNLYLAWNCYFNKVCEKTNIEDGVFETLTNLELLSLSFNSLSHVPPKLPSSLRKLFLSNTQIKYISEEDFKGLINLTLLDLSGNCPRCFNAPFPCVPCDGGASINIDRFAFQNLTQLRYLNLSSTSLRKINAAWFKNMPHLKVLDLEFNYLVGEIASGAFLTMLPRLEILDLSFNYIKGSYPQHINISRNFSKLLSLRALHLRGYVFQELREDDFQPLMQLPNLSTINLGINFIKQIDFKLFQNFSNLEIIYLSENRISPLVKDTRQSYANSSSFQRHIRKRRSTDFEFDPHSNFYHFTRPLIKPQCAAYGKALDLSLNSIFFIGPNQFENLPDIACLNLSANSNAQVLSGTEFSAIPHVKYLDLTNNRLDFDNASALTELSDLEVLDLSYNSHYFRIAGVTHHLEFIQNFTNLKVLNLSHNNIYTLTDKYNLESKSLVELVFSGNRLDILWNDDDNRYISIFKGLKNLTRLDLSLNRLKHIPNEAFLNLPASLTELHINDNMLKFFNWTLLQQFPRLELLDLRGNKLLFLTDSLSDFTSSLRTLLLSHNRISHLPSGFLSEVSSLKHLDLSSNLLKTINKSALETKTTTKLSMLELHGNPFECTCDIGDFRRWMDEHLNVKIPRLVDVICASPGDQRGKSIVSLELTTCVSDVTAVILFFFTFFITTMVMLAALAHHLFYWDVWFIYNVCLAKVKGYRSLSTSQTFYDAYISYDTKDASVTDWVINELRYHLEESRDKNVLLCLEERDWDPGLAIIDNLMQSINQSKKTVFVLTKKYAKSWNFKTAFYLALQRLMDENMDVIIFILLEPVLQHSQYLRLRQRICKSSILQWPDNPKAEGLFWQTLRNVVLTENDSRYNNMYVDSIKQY
In words: TLR8 inhibition reporter assay (HEK-Blue SEAP reporter, R848 stimulation). The following applies: HEK-Blue cells overexpressing human TLR8, SEAP reporter, R848 15.9 μM, 22 hour incubation. The gist of the method: as §1
A general note: In a reporter assay the amount or activity of a reporter protein is the signal.

Assay [3] concerns the target T3, human TLR9 (Homo sapiens, UniProt Q9NR96).
T3 construct: host or cells: HEK-Blue cells
T3 sequence (Q9NR96 26-1032): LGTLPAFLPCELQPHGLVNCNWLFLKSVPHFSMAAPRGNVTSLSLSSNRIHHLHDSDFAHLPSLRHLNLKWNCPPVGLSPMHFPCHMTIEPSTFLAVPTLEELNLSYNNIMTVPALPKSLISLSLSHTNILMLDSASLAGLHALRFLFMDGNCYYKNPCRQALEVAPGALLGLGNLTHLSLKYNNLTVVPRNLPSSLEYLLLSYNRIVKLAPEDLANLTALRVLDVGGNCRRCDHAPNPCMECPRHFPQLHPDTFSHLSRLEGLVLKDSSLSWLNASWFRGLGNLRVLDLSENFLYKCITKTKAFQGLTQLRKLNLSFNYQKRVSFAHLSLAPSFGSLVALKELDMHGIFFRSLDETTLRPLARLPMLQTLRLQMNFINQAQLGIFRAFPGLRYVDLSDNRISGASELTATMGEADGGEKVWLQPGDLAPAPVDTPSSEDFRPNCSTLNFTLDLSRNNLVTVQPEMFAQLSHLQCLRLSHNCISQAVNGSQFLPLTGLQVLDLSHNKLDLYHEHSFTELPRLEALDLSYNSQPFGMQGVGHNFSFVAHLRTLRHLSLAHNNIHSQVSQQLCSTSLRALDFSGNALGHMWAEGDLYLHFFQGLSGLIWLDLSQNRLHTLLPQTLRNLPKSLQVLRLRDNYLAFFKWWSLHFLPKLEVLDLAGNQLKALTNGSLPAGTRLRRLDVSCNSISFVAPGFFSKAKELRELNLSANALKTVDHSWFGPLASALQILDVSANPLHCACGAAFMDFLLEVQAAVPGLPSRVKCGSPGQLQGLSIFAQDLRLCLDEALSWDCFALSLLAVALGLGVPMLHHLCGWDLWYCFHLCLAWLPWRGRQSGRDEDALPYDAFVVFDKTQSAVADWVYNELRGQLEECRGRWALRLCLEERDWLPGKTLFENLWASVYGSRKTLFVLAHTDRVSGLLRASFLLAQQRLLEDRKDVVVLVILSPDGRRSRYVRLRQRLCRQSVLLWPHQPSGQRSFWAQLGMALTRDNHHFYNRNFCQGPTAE
In words: TLR9 inhibition reporter assay (HEK-Blue SEAP reporter, ODN2006 stimulation). The following applies: HEK-Blue cells overexpressing human TLR9, SEAP reporter, ODN2006 5 nM, 22 hour incubation. In short, it runs like this: as §1

`Cc1c(-c2[nH]c3ccc(C4CCNCC4)cc3c2C(C)C)cn(C)c(=O)c1Cl` [Example 31, 3-chloro-5-(3-isopropyl-5-(piperidin-4-yl)-1H-indol-2-yl)-1,4-dimethylpyridin-2(1H)-one]: the IC50 (as a rule, the midpoint of a concentration-inhibition curve) in assay [1] amounted to 1 nM; in assay [2] it was 7 nM; in assay [3], 1120 nM.
The matching figures for `Cc1cc(-c2[nH]c3ccc(C4CCN(C5CCOCC5)CC4)cc3c2C(C)C)cn(Cc2ccccc2)c1=O` [Example 263, 1-benzyl-5-(3-isopropyl-5-(1-(tetrahydro-2H-pyran-4-yl)piperidin-4-yl)-1H-indol-2-yl)-3-methylpyridin-2(1H)-one]: 10.8 nM, 24.1 nM and 1560 nM.
The like results for `CC(C)c1c(-c2cc(-c3cncnc3)c(=O)n(C)c2)[nH]c2ccc(C3CCN(CC(C)(C)O)CC3)cc12` [Example 326, 5-(5-(1-(2-hydroxy-2-methylpropyl)piperidin-4-yl)-3-isopropyl-1H-indol-2-yl)-1-methyl-3-(pyrimidin-5-yl)pyridin-2(1H)-one] were, in that order, 6.1 nM, 0.6 nM and 1660 nM.
On to `COCCn1cc(-c2[nH]c3ccc(C4CCN(CC(=O)N(C)C)CC4)cc3c2C(C)C)cc(C)c1=O` [Example 159, 2-(4-(3-isopropyl-2-(1-(2-methoxyethyl)-5-methyl-6-oxo-1,6-dihydropyridin-3-yl)-1H-indol-5-yl)piperidin-1-yl)-N,N-dimethylacetamide], for which the IC50 in assay [1] is 10.2 nM; in assay [2], 19.7 nM; in assay [3] it was 16600 nM.
Consider `COCCn1cc(-c2[nH]c3ccc(C4CCN(CC(C)C)CC4)cc3c2C(C)C)cc(C)c1=O` [Example 109, 5-(5-(1-isobutylpiperidin-4-yl)-3-isopropyl-1H-indol-2-yl)-1-(2-methoxyethyl)-3-methylpyridin-2(1H)-one], for which the IC50 was found to be 13 nM in assay [1], 9.7 nM in assay [2] and 5310 nM in assay [3].
The like results for `Cc1cc(-c2[nH]c3ccc(C4CCN(C5CCN(C)C5=O)CC4)cc3c2C(C)C)cn(C)c1=O` (stereo not drawn) [Example 127, 5-(3-isopropyl-5-(1-(1-methyl-2-oxopyrrolidin-3-yl)piperidin-4-yl)-1H-indol-2-yl)-1,3-dimethylpyridin-2(1H)-one] were, in that order, 3.7 nM, 5.2 nM and 33600 nM.
On to `COCCOCCN1CCC(c2ccc3[nH]c(-c4cn(C)c(=O)c(Cl)c4C)c(C(C)C)c3c2)CC1` [Example 101, 3-chloro-5-(3-isopropyl-5-(1-(2-(2-methoxyethoxy)ethyl)piperidin-4-yl)-1H-indol-2-yl)-1,4-dimethylpyridin-2(1H)-one], for which the IC50 worked out at 12.8 nM in assay [1], 9.3 nM in assay [2] and 4880 nM in assay [3].
In the case of `CCCN1CCC(c2ccc3[nH]c(-c4cc(-c5cnc(C)nc5)c(=O)n(C)c4)c(C(C)C)c3c2)CC1` [Example 337, 5-(3-isopropyl-5-(1-propylpiperidin-4-yl)-1H-indol-2-yl)-1-methyl-3-(2-methylpyrimidin-5-yl)pyridin-2(1H)-one], the IC50 in assay [1] turned out to be 1.8 nM; in assay [2], 11.9 nM; in assay [3], 2490 nM.
The like results for `Cc1cc(-c2[nH]c3ccc(C4CCN(CC(=O)N5CCCC5)CC4)cc3c2C(C)C)cn(C)c1=O` [Example 122, 5-(3-isopropyl-5-(1-(2-oxo-2-(pyrrolidin-1-yl)ethyl)piperidin-4-yl)-1H-indol-2-yl)-1,3-dimethylpyridin-2(1H)-one] were, in that order, 4.9 nM, 15.7 nM and 14700 nM.
The matching figures for `Cc1c(-c2[nH]c3ccc(C4CCN(C(=O)C(F)(F)F)CC4)cc3c2C(C)C)cn(C)c(=O)c1Cl` [Example 302, 3-chloro-5-(3-isopropyl-5-(1-(2,2,2-trifluoroacetyl)piperidin-4-yl)-1H-indol-2-yl)-1,4-dimethylpyridin-2(1H)-one]: 20.4 nM, 214 nM and no less than 50000 nM.
